Where two headings read alike, the source gives them in different places.
Legend:
[1] = tested on: human FADD-deficient Jurkat T cells; experiment: Cellular necrosis inhibition, FADD-deficient Jurkat T cells challenged with TNF-alpha (CellTiter-Glo viability); details: 30 hours, ATP-based cell viability
Experimental: FADD−/− Jurkat cells (Juo P, et al. Cell Growth Differ. 1999, 10(12):797-804) were seeded at the density of 5*10^5 cells/mL into 96 well white plates (Costar) at 100 μL/well. […] Cells were treated in duplicate with various concentrations of test compounds in the presence or absence of 10 ng/ml human TNF-alpha. (Cell Sciences).
After 30 hours, viability of the cells was determined using luminescent ATP-based cell viability assay (CellTiter-Glo, Promega). Percentage of protection by the compound was calculated as a ratio of the cps (counts per second) value in the well treated with the test compound and TNF-alpha. to the cps value in the well treated with the compound alone. Assays were repeated twice, and the average EC50 value over both assays was calculated.
Exemplary compounds of structure (II) were screened for anti-necrotic activity according to the general procedures of Example 7.

[2] = target: GST-human RIP1 kinase domain (amino acids 1-327) (Homo sapiens (Human), UniProt Q13546); experiment: RIP1 kinase ADP-Glo assay
GST-human RIP1 kinase domain (amino acids 1-327), sequence (Q13546 1-327): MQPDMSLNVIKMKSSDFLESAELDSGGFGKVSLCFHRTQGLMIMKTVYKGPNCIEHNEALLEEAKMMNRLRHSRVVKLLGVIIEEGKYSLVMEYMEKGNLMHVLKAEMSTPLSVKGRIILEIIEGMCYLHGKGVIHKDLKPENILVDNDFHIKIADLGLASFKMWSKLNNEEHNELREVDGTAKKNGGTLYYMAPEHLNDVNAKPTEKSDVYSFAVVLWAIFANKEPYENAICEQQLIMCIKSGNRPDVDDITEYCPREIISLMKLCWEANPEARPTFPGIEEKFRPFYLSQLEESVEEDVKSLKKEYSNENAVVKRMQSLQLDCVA
Experimental: RIP1 kinase assays were performed using ADP-Glo assay (Promega) according to manufacturer's protocol. […] Reactions were performed for 4 hr at room temperature and stopped by incubation with ADP-Glo reagent for 40 min at room temperature. Luminescent signal was developed by incubation with Kinase Detection reagent for 30 min at room temperature. Signal was determined using Victor3V platereader (Perkin Elmer). Non-linear regression to calculate EC50 values was performed using GraphPad Prism software package.

[3] = 10 ng/ml human TNF-alpha plus Smac mimetic (10 nM SM-164), read-out: EC50 (nM) TNFα + Smac
[4] = 10 ng/ml human TNF-alpha, read-out: EC50 (nM) TNFα

Row | Compound | EC50 [1, 3] | EC50 [1, 4] | EC50 [2]
1 | O=C1NC(Cc2c[nH]c3c(Cl)cccc23)C(=O)N1Cc1ccccc1F (centres unmarked) [II-1, 5-((7-chloro-1H-indol-3-yl)methyl)-3-(2-fluorobenzyl)imidazolidine-2,4-dione] | 11000 nM | 159 nM | 
2 | O=C1NC(Cc2c[nH]c3ccccc23)C(=O)N1Cc1ccc(Cl)cc1 (centres unmarked) [Compound C1, reference compound] |  | 343 nM | 
3 | CN1C(=O)N[C@H](Cc2c[nH]c3c(Cl)c(Cl)ccc23)C1=O [B, reference compound] |  | > 100000 nM | 
4 | O=C1NC(Cc2c[nH]c3c(Cl)c(F)ccc23)C(=O)N1Cc1ccc(F)c(F)c1 (centres unmarked) [II-7, 5-((7-chloro-6-fluoro-1H-indol-3-yl)methyl)-3-(3,4-difluorobenzyl)imidazolidine-2,4-dione] | 722 nM | 121 nM | 
5 | O=C1NC(Cc2c[nH]c3c(Cl)cccc23)C(=O)N1Cc1cccc(F)c1 (centres unmarked) [II-2, 5-((7-chloro-1H-indol-3-yl)methyl)-3-(3-fluorobenzyl)imidazolidine-2,4-dione] | 895 nM | 41 nM | < 100 nM
6 | O=C1NC(Cc2c[nH]c3c(Cl)cccc23)C(=O)N1Cc1ccc(F)c(F)c1 (centres unmarked) [II-3, 5-((7-chloro-1H-indol-3-yl)methyl)-3-(3,4-difluorobenzyl)imidazolidine-2,4-dione] | 426 nM | 89 nM | < 100 nM
7 | O=C1NC(Cc2c[nH]c3c(Cl)c(F)ccc23)C(=O)N1Cc1ccccc1F (centres unmarked) [II-5, 5-((7-chloro-6-fluoro-1H-indol-3-yl)methyl)-3-(2-fluorobenzyl)imidazolidine-2,4-dione] | 892 nM | 235 nM | 
8 | CN1C(=O)N[C@H](Cc2c[nH]c3c(Cl)cccc23)C1=O [Compound A, reference compound] | 324 nM | 90.5 nM | 
9 | CN1C(=O)N[C@H](Cc2c[nH]c3c(Cl)ccc(F)c23)C1=O [Compound E, reference compound] | 8330 nM | 2330 nM | 
10 | O=C1NC(Cc2c[nH]c3c(Cl)cccc23)C(=O)N1Cc1ccc(F)cc1 (centres unmarked) [II-4, 5-((7-chloro-1H-indol-3-yl)methyl)-3-(4-fluorobenzyl)imidazolidine-2,4-dione] | 867 nM | 220 nM | 
11 | CN1C(=O)N[C@H](Cc2c[nH]c3c(Cl)c(F)ccc23)C1=O [Compound (Ia), (R)-5-((7-chloro-6-fluoro-1H-indol-3-yl)methyl)-3-methylimidazolidine-2,4-dione] | 86.6 nM |  | 93.7 nM
12 | O=C1NC(Cc2c[nH]c3c(Cl)c(F)ccc23)C(=O)N1Cc1cccc(F)c1F (centres unmarked) [II-6, 5-((7-chloro-6-fluoro-1H-indol-3-yl)methyl)-3-(2,3-difluorobenzyl)imidazolidine-2,4-dione] | 822 nM | 50 nM | 
13 | CN1C(=O)N[C@H](Cc2c[nH]c3c(Cl)cc(F)cc23)C1=O [Compound F, reference compound] | > 100000 nM | 10500 nM | 

Source: US10508102B2, “Inhibitors of cellular necrosis and related methods” (President and Fellows of Harvard College, priority 2014, dated 2019)
